Assay results published in patent US20070111265A1, “Ligands for mineralocorticoid receptor (MR) and methods for screening for or designing MR ligands” (Van Andel Research Institute, priority 2005, published 2007).

Legend:
GR Q642L/P637S = biological target: T1, GR Q642L/P637S (Homo sapiens, UniProt P04150, P637S/Q642L); experiment: MMTV luciferase reporter assay in Cos-7 cells; type: cell-based; settings: additional mutation of P637S
T1 construct: reverse mutations in the full length GR receptor (P637S and Q642L); expressed in transfected cells; host or cells: Cos-7
T1 sequence (P04150 1-777 P637S/Q642L): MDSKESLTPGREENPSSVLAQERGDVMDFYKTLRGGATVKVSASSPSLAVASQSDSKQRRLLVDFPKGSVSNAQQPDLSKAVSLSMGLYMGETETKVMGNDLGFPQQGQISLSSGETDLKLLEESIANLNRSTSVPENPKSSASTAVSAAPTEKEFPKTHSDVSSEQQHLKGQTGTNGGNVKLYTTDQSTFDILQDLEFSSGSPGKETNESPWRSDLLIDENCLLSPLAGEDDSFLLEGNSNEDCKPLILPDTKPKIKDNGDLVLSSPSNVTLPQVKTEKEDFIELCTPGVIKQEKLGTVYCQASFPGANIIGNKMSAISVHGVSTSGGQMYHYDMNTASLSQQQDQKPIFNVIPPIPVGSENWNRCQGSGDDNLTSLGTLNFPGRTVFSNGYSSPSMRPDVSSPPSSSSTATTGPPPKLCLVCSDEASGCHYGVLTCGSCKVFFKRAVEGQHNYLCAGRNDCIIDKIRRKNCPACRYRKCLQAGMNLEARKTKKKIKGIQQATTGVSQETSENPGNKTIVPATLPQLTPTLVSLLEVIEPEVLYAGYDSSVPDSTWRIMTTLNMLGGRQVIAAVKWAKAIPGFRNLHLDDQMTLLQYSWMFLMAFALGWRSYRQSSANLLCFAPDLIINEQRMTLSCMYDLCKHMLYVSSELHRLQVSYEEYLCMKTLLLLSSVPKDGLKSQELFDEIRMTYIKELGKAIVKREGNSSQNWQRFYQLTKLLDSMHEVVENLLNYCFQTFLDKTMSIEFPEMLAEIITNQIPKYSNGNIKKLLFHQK
Protocol: (§1) Cos-7 cells were maintained in DMEM containing 10% fetal bovine serum (FBS) and were transiently transfected using Lipofectamine 2000 (Invitrogen). […] Cells were transfected in Opti-MEM with 400 ng of MMTV-Luc reporter plasmid and 400 ng of receptor expression vector (pRS vector) encoding full-length GR and MR respectively (ATCC). […] Luciferase data were normalized to Renilla activity as an internal control.
(§2) To validate the role of the key MR pocket residues in hormone recognition, the inventors mutated S843 and L848 to the corresponding GR residues (S843P and L848Q) within the context of the full length wild type receptor. […] We also performed reverse mutations in the full length GR receptor (P637S and Q642L) and tested them in the same MMTV reporter.

MR L848Q = biological target: T2, MR L848Q (Homo sapiens, UniProt P08235, L848Q); experiment: MMTV luciferase reporter assay in Cos-7 cells; type: cell-based
T2 construct: (S843P and L848Q) within the context of the full length wild type receptor; expressed in transfected cells; host or cells: Cos-7
T2 sequence (P08235 1-984 L848Q): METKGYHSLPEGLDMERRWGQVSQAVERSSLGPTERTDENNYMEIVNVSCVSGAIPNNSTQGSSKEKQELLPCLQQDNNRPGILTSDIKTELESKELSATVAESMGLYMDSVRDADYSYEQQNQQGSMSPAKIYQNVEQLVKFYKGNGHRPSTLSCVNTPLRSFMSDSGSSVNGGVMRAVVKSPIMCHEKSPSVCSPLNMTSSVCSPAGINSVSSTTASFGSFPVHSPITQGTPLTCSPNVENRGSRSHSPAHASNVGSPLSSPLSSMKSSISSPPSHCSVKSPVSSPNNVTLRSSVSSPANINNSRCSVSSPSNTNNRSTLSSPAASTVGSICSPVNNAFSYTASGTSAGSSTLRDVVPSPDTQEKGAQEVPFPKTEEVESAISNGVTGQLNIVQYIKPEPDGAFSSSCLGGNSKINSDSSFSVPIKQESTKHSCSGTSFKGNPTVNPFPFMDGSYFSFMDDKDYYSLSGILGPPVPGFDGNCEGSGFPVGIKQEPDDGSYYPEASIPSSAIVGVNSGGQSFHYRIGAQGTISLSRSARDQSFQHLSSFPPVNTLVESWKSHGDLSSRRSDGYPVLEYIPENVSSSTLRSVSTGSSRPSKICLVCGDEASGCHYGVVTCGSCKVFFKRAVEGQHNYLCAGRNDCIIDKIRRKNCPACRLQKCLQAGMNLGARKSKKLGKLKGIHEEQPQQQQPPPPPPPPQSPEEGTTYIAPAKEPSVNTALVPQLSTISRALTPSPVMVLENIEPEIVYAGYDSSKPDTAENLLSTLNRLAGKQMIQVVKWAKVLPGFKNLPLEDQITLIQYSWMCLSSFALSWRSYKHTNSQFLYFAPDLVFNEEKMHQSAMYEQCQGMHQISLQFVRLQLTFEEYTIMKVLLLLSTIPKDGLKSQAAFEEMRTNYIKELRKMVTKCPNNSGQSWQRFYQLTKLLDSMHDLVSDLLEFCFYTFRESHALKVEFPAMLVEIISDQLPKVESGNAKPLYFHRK
Protocol: as §1, §2

| Compound | activation of GR Q642L/P637S (GR Q642L/P637S) | activation of MR L848Q (MR L848Q; versus wild type MR) | EC50 (MR L848Q; Cos-7, MMTV-Luc, read-out: EC50, activation of MR L848Q) | decrease of potency by L848Q mutation (MR L848Q; versus wild type MR) |
| --- | --- | --- | --- | --- |
| C[C@]12CCC(=O)C=C1CC[C@@H]1[C@@H]2[C@@H](O)C[C@@]2(C)[C@H]1CC[C@]2(O)C(=O)CO [cortisol] | severely affects activation | not affected | – | – |
| C[C@]12C[C@H](O)[C@H]3[C@@H](CCC4=CC(=O)CC[C@@]43C)[C@@H]1CC[C@@H]2C(=O)CO [corticosterone] | severely affects activation | – | ~1 nM | at least 10 fold |
